“Also recorded” adds a separate entry of the source. Counter-ions that a name gives are not always drawn. Like-named read-outs stand apart in the source and are kept apart here. Each block holds one molecule with its values, some of them ahead of it.
Columns and labels:
Type in all cases: physicochemical
[1] = Hygroscopicity study: moisture change by weight analysis and Karl Fischer titrimetry; settings: for colour change of sample accompanying water uptake: hygroscopicity study, 40° C./75% RH
Procedure: (§1) Hygroscopicity/Solid State Stability Studies Samples (ca 10 mg) were sieved (250 μm) and then stored at each of the following conditions of temperature (T) and relative humidity (RH) for up to 4 weeks: 30° C. at II, 75 and 90% RH and 40° C. at II, 75 and 90% RH, the required humidities being achieved using the appropriate saturated salt solution in a dessicator. Measurements of water content changes were conducted by weight analysis using a microbalance and by Karl Fischer titrimetry (KFT), and chemical and physical stability evaluation by high performance liquid chromatography (HPLC) and DSC. KFT was performed using a Mitsubishi moisturemeter and ca 10 mg of each sample.

[2] = Solid state stability study: chemical and physical stability by HPLC and DSC; settings: for solid state instability (associated with water uptake): hygroscopicity studies
Procedure: as §1, with “DSC. HPLC analyses were” for “DSC. KFT was”, “performed on” for “performed using”, “a LDC isocratic system under the following conditions: column—Novapak C18, 5μm, 15 cm; mobile phase—pH 6.0, 60:40 v/v 0.02M KH2PO4 (0.5% triethylamine): methanol; detection—UV (254 nm); flow rate—1.0 ml/min; injection volume —20 μl; sample 0.1 mg/ml in mobile phase.” for “a Mitsubishi moisturemeter and ca 10 mg of each sample.”

[3] = Polymorphic conversion by DSC
Procedure: Samples (ca 5 mg) of each form were analysed using a Perkin-Elmer 7 Series thermal analyser at a scanning rate of 20° C. per minute. For identification of the respective endotherms, shown in the representative DSC thermograms of FIGS. 3A and 3B, vide supra. DSC was used to determine both the polymorphic conversions of the β-forms of the hydrobromide and hemisulphate salts to their respective α-forms, and also the conversion of the α-form of the hydrochloride salt to its β-form which is believed to be an anhydrate-hydrate transition.

[4] = Compression studies; settings: for behaviour on compression (colour change, melting, punch filming): 5 tonnes for 1 minute, 13 mm punch and die set
Procedure: Samples (200 mg) were compressed using a bench IR press (Graseby Specac Model 15.011) at 5 tonnes for 1 minute using a 13 mm punch and die set, then assessed for colour change and evidence of melting. Further analysis (DSC and HPLC) was conducted after grinding of the compact using a mortar and pestle.

[5] = listed as α-form of the hydrobromide salt
[6] = listed as α-form of the hemisulphate salt
[7] = listed as β-form of the hemisulphate salt

SMILES: CN1CCC[C@@H]1Cc1c[nH]c2ccc(CCS(=O)(=O)c3ccccc3)cc12 [α-HBr, 3-(N-Methyl-2(R)-pyrrolidinylmethyl)-5-(2-phenylsulphonylethly)-1H-indole hydrobromide, α-form]
weight over the course of the hygroscopicity study (in words) ([1]; 30 and 40° C., 11, 75 and 90% RH, up to 4 weeks): relatively stable weights
moisture change determined by % weight change ([1]; T/RH 30/11 (30° C., 11% RH), Week 1): −0.45%
moisture change determined by % weight change ([1]; T/RH 30/11, Week 2): −0.51%
moisture change determined by % weight change ([1]; T/RH 30/11, Week 3): +0.20%
moisture change determined by % weight change ([1]; T/RH 30/11, Week 4): +0.09%
moisture change determined by % weight change ([1]; T/RH 30/75, Week 1): +0.08%
moisture change determined by % weight change ([1]; T/RH 30/75, Week 2): +0.01%
moisture change determined by % weight change ([1]; T/RH 30/75, Week 3): +0.17%
moisture change determined by % weight change ([1]; T/RH 30/75, Week 4): +0.25%
moisture change determined by % weight change ([1]; T/RH 30/90, Week 1): +0.53%
moisture change determined by % weight change ([1]; T/RH 30/90, Week 2): +0.46%
moisture change determined by % weight change ([1]; T/RH 30/90, Week 3): +0.50%
moisture change determined by % weight change ([1]; T/RH 30/90, Week 4): +0.49%
moisture change determined by % weight change ([1]; T/RH 40/11, Week 1): −0.48%
moisture change determined by % weight change ([1]; T/RH 40/11, Week 2): +0.58%
moisture change determined by % weight change ([1]; T/RH 40/11, Week 3): −0.51%
moisture change determined by % weight change ([1]; T/RH 40/11, Week 4): −0.49%
moisture change determined by % weight change ([1]; T/RH 40/75, Week 1): +0.06%
moisture change determined by % weight change ([1]; T/RH 40/75, Week 2): +0.23%
moisture change determined by % weight change ([1]; T/RH 40/75, Week 3): 0.00%
moisture change determined by % weight change ([1]; T/RH 40/75, Week 4): +0.11%
moisture change determined by % weight change ([1]; T/RH 40/90, Week 1): +0.87%
moisture change determined by % weight change ([1]; T/RH 40/90, Week 2): +1.27%
moisture change determined by % weight change ([1]; T/RH 40/90, Week 3): +1.16%
moisture change determined by % weight change ([1]; T/RH 40/90, Week 4): +1.23%
hygroscopicity (in words) [1, 5]: lack of hygroscopicity
change in DSC profile ([2]; T=40° C./RH=90% samples): No change
chemical stability by HPLC analysis ([2]; all of the conditions studied (30 and 40° C., 11, 75, 90% RH, up to 4 weeks)): confirmed its stability
polymorphic conversion [3, 5]: No polymorphic transitions
behaviour on compression (colour change, melting, punch filming) [4, 5]: no evidence of a change in sample appearance or punch filming
changes to the thermogram (melting point, enthalpy of fusion) after compression or grinding ([4]; DSC after compression or grinding): no changes

SMILES: CN1CCC[C@@H]1Cc1c[nH]c2ccc(CCS(=O)(=O)c3ccccc3)cc12 [α-½H2SO4, 3-(N-methyl-2(R)-pyrrolidinylmethyl)-5-(2-phenylsulphonylethyl)-1H-indole]
moisture change determined by % weight change ([1]; T/RH 40/75, Week 1): +6.0%
moisture change determined by % weight change ([1]; T/RH 40/75, Week 2): +4.85%
moisture change determined by % weight change ([1]; T/RH 40/75, Week 3): +5.46%
moisture change determined by % weight change ([1]; T/RH 40/75, Week 4): +4.04%
colour change of sample accompanying water uptake [1, 6]: no concomitant colour
hygroscopicity (in words) [1, 6]: extremely hygroscopic
solid state instability (associated with water uptake) [2, 6]: does not display solid state instability

SMILES: CN1CCC[C@@H]1Cc1c[nH]c2ccc(CCS(=O)(=O)c3ccccc3)cc12 [β-form of the hydrobromide salt]
polymorphic conversion [3]: undergoes polymorphic conversion to a higher melting form

SMILES: CN1CCC[C@@H]1Cc1c[nH]c2ccc(CCS(=O)(=O)c3ccccc3)cc12 [β-½H2SO4, 3-(N-methyl-2(R)-pyrrolidinylmethyl)-5-(2-phenylsulphonylethyl)-1H-indole]
moisture change determined by % weight change ([1]; T/RH 40/75, Week 1): +1.33%
moisture change determined by % weight change ([1]; T/RH 40/75, Week 2): +3.79%
moisture change determined by % weight change ([1]; T/RH 40/75, Week 3): +3.38%
moisture change determined by % weight change ([1]; T/RH 40/75, Week 4): +1.69%
colour change of sample accompanying water uptake [1, 7]: change in colour of the sample from cream to yellow
hygroscopicity (in words) ([1]; relative humidities (RH) higher than 50%): very hygroscopic
polymorphic conversion [3, 7]: water uptake can cause polymorphic conversion to an alternative form; also recorded: polymorphic conversion to the α-form
behaviour on compression (colour change, melting, punch filming) [4, 7]: undergoes a colour change on compression and causes punch-filming during tabletting; also recorded: undergoes a colour change on compression and also causes punch filming on compaction

Now from value to molecule, other results behind:

behaviour on compression (colour change, melting, punch filming) [4]: did not melt on compaction
SMILES: CN1CCC[C@@H]1Cc1c[nH]c2ccc(CCS(=O)(=O)c3ccccc3)cc12 [α-form of the hydrochloride salt, 3-(N-methyl-2(R)-pyrrolidinylmethyl)-5-(2-phenylsulphonylethyl)-1H-indole]
water uptake (in words) ([1]; T 40° C., RH 75%, seven days (1 week)): a significant amount of water had been taken up; also recorded: picked up a significant amount of moisture
polymorphic conversion [3]: converts to the hydrated β-form; also recorded: transformation of the α-form to the β-form

hygroscopicity (in words) ([1]; T=40° C./RH=75%, weight change and KFT at week 4): non-hygroscopic
SMILES: CN1CCC[C@@H]1Cc1c[nH]c2ccc(CCS(=O)(=O)c3ccccc3)cc12 [β-form of the hydrochloride salt, 3-(N-methyl-2(R)-pyrrolidinylmethyl)-5-(2-phenylsulphonylethyl)-1H-indole]
solid state instability (associated with water uptake) [2]: does not display solid state instability; also recorded: no solid state instability being detected
behaviour on compression (colour change, melting, punch filming) [4]: melting and sticking of the disk to the punches were observed; also recorded: melts and causes sticking of the disk to the punches
